# Measurements: patent EP4732839A1, “USE OF COMPOUND IN TREATMENT OF LIVER DISEASES” (priority 2023, dated 2025)
# How the values were obtained:
# [1] = test system: IFN-α, IP-10, IL-6, and TNF-α; assay: Liver safety: cytokine ELISA in liver tissue; type: in vivo, C57BL/6J wild-type female mice
# Procedure: (§1) C57BL/6J wild-type female mice (6 weeks old) were randomly grouped. After administration at different doses, whole blood and liver tissues of the mice were separately collected at 1 h, 2 h, and 4 h for detection of a plurality of parameters to evaluate the effect of the drugs on the liver.
# (§2) Liver tissues and blood were collected at 1 h, 2 h, and 4 h after single dosing.
# (§3) The supernatant was collected and stored (-20 °C); • (3) IFN-α, IP-10, IL-6, and TNF-α were detected using an ELISA kit. • (C) Remaining liver tissue-HE staining and pathological evaluation. • (D) 1/2 blood (whole blood)-liver function parameter detection: AST (aspartate aminotransferase), ALT (alanine aminotransferase/glutamate pyruvate transaminase), ALP (alkaline phosphatase), ALB (albumin), and GGT (γ-glutamyl transferase). • (E) 1/2 blood-serum preparation-reserve for ELISA.
# [2] = Liver microsome metabolic stability (murine); settings: Murine liver microsomes, 1 µM compound, 1 mg/mL, NADPH, 37 °C
# Procedure: The metabolic stability of the compounds in in vitro liver microsomes was evaluated. The procedures and steps were as follows: At 37 °C, 1 µM of the compounds was incubated in 1 mg/mL liver microsomes. The reaction system was a 0.1 M potassium phosphate buffer (pH 7.4) containing 3 mmol/L MgCl2 and 1 mmol/L NADPH. At the beginning of the reaction, the small molecules and the liver microsomes were pre-incubated at 37 °C for 10 min, and subsequently a cofactor NADPH was added to initiate the metabolic reaction. The reaction was quenched at 0 min, 5 min, 10 min, 20 min, 30 min, and 60 min using three volumes of ice-cold methanol containing an internal standard (200 nM labetalol). After incubation at room temperature for 10 min, the samples were centrifuged at 4000 rpm at 4 °C for 20 min, and the supernatants were collected, diluted with chromatography-grade purified water in a 1:1 ratio, and then subjected to quantitative analysis. […] After a 6-minute chromatographic separation on a C18 column (50 × 2.1 mm; 2.6 µm) under a gradient mobile phase of 0.1% formic acid in water, the peaks corresponding to specified ionic signals were detected. […]
# (§4) The metabolic half-life (T1/2) and the metabolic clearance rate (CLint(mic)) (µL/min/mg) were calculated using a first-order kinetic equation.
# [3] = type: in vivo, C57BL/6J wild-type female mice
# Procedure: as §1, §2, §3
# physchem = settings: phosphate buffer, pH 7.4, aqueous buffer
# [4] = Liver microsome metabolic stability (human); settings: Human liver microsomes, 1 µM compound, 1 mg/mL, NADPH, 37 °C
# Procedure: (§5) The metabolic stability of the compounds in in vitro liver microsomes was evaluated. The procedures and steps were as follows: At 37 °C, 1 µM of the compounds was incubated in 1 mg/mL liver microsomes. The reaction system was a 0.1 M potassium phosphate buffer (pH 7.4) containing 3 mmol/L MgCl2 and 1 mmol/L NADPH. At the beginning of the reaction, the small molecules and the liver microsomes were pre-incubated at 37 °C for 10 min, and subsequently a cofactor NADPH was added to initiate the metabolic reaction. The reaction was quenched at 0 min, 5 min, 10 min, 20 min, 30 min, and 60 min using three volumes of ice-cold methanol containing an internal standard (200 nM labetalol). After incubation at room temperature for 10 min, the samples were centrifuged at 4000 rpm at 4 °C for 20 min, and the supernatants were collected, diluted with chromatography-grade purified water in a 1:1 ratio, and then subjected to quantitative analysis. […] After a 6-minute chromatographic separation on a C18 column (50 × 2.1 mm; 2.6 µm) under a gradient mobile phase of 0.1% formic acid in water, the peaks corresponding to specified ionic signals were detected. […] The detailed operation process was as follows: • 1) The compound working solution was added to all 96-well reaction plates (T0, T5, T10, T20, T30, and T60) at 10 µL/well, except the blank wells. • 2) The microsomal solution was added to all the reaction wells (T0, T5, T10, T20, T30, T60, and blank wells) at 80 µL/well. • 3) The plates were pre-incubated at 37 °C for 10 min. • 4) After pre-incubation, NADPH was added to each reaction plate at 10 µL/well to initiate the reaction. • 5) At the set end time point, a 4 °C methanol solution (containing an internal standard: 200 nM labetalol) was added to each reaction plate at 300 µL/well to quench the reaction. • 6) Each plate was sealed and shaken for 10 min. • 7) The mixture was shaken well and centrifuged at 4000 rpm at 4 °C for 20 min. • 8) 300 µL of the supernatant was collected, and HPLC-grade water was added at 300 µL/well. The mixture was well mixed and then subjected to LC-MS analysis.
# as §4
# [5] = 3/10/20 mpk i.g., livers collected 1 h, 2 h, 4 h post-dose
# Procedure: as §1, §2, §3
# in vitro = settings: human, microsomes, pH 7.4
# Procedure: as §5, §4
# Hep3B-luc = Hep3B-luc liver orthotopic xenograft mouse model; settings: Hep3B-luc liver orthotopic tumor model, 3 mg/kg
# H22-luc = H22-luc orthotopic model, 3 mpk, IG, QW × 3, BLI 21 days post-dose, P < 0.0001
# Procedure: The cells were placed in an incubator at 37 °C with 5% CO2 and passaged every 1 to 2 days depending on the cell density.
# The cell concentration (H22-luc, 2.0E8/mL) was adjusted, and the cells were mixed well with Matrigel at a ratio of 1:1. The mixture was placed on ice for subsequent injection experiments, and was mixed thoroughly by shaking with Vortex before use.
# • (1) The mice were weighed before surgery and anesthetized by intraperitoneal injection of avertin at 0.15 mL/10 g body weight. […] The needle was inserted into the liver at a 30-degree angle relative to the liver surface. After the needle was inserted, the needle was made parallel to the tabletop and advanced in parallel for about 3 mm. 10 µL of H22-luc cell suspension was slowly injected, and a rapid whitening (white plaque) or turbid translucent vacuolation over most of the liver lobe in the injection area was observed. • (5) After injection, a cotton swab was used to apply slight pressure at the needle insertion site while the needle was slowly withdrawn. The cotton swab was removed until no bleeding was observed. • (6) The liver lobe was gently pushed back into the abdominal cavity, and the muscle layer and skin were sutured.
# The experimental data were analyzed using Graphpad Prism 8. The experimental data were expressed as mean ± SD.
# [6] = Liver tissue distribution after single intragastric administration; settings: 10 mg/kg single intragastric, ICR mice; for AUC(0-t) at 24 h: mouse, in vivo, po, 10 mg/kg, area under curve at 24 h post-dose
# Procedure: The specific regimen was as follows: Before administration, the state of the formulation for administration was inspected, and the homogeneity of the formulation was ensured by vortexing, stirring, or shaking. The theoretical dose for each mouse was calculated according to the following formula. The actual dose for each ICR mouse and the collection time for plasma and tissue samples were required to be recorded in detail in corresponding tables. Theoretical administration volume (mL) = ((Dose(mg⋅kg^−1))/(Concentration of test solution (mg⋅((mL))^−1))) × Animal body weight (kg) [formula]
# Plasma sample collection: At each designated time point, about 100 µL of blood was collected from the orbit, and the collected whole blood was placed in an EDTA-K2 anticoagulation tube, inverted several times to mix thoroughly, stored on wet ice, and centrifuged (at 1500 g to 1600 g) for 10 min within 30 min to separate the plasma. The resulting plasma sample was stored at -40 °C to -20 °C for biological sample analysis.
# The specific procedures for liver tissue collection were as follows: Liver tissues were collected immediately after whole blood collection. The liver tissues were collected, washed with ice-cold normal saline, dehydrated, weighed, and homogenized in 20% methanol-water at a ratio of 1:5 (w/v). The collection time of tissues and the weight of homogenized tissues were required to be recorded in detail in corresponding tables.
# The plasma and various tissue homogenates were stored in a refrigerator at -40 °C to -20 °C for sample analysis. After the experiment was completed, the mice were euthanized by carbon dioxide asphyxiation or cervical dislocation. After the analysis was completed, the samples were returned to the biological sample room, and transferred to an environment at -40 °C to -20 °C for storage according to SOP-SM-001.
# The corresponding pharmacokinetic parameters of plasma and liver tissues were calculated using a non-compartmental model in Phoenix WinNonlin 8.0 or later versions, and the area under curve AUC0-t (AUC0-t, the area under the concentration-time curve at 24 h post-dose) was calculated. The liver/plasma drug distribution ratio (RL/P) was then calculated.
# [7] = test system: Peripheral blood mononuclear cells (hPBMCs); assay: Cytokine secretion after stimulation of PBMCs; settings: hPBMCs from 3 donors, 24 h of stimulation
smiles,measurement,setting,value
COCCNc1nc(N)nc2ccc(Cc3ccc(CN4CCOCC4)cc3)nc12 [Compound II],"expression levels of IL-6, TNF-α, IFN-α, and IP-10","[1]; 3/10/20 mpk groups i.g. single dose, 1 h, 2 h, 4 h","all peaked at 2 h, and decreased at 4 h"
same,IP-10 (CXCL-10) secretion,[1]; i.g. single dose,significantly induced
same,k,[2],0.0460 L/min
same,AST levels,"[3]; all administration groups, no statistically significant differences",exceeded the normal reference range
same,ALP levels,[3]; all dose groups,within the normal reference value range
same,GGT levels,[3]; all dose groups,significantly lower than that of the control group
same,ALB level,[3]; at 2 h and 4 h,significantly lower than that of the control group
same,ALT elevation by clinical adverse reaction grading,"[3]; single administration, Grade 1 AE = ALT exceeding three times the normal value",did not result in ALT elevation to grade 1 AE
same,ALT,"[3]; whole blood, 3/10/20 mpk i.g. single dose, 1 h, 2 h, 4 h",increased in all groups
same,solubility,physchem,1010 µM
same,k,[4],0.0197 L/min
same,Liver HE staining,[5],did not cause apparent pathological damage to the liver tissues
same,half-life at 1 µM,in vitro,35.1 min
same,microsomal CLint at 1 µM,in vitro,39.5 µL/min/mg
same,maximum body weight loss,Hep3B-luc,5.4%
same,TGI,"Hep3B-luc; IG, QW × 3, p < 0.05",61.6%
same,maximum body weight loss rate,"MC38-luc; MC38-luc liver metastasis model, compound II 3 mpk IG QW × 3, PD-1 10 mpk IP BIW × 2",3.9%
same,TGI,"MC38-luc; MC38-luc liver metastasis model, compound II 3 mpk IG QW × 3, PD-1 10 mpk IP BIW × 2, 17 days post-dose",63.3%
same,CD8+ T cells in peripheral lymph nodes,"MC38-luc; flow cytometry, compared with vehicle group",no significant difference
same,Kuffer cells in the liver tissue,"MC38-luc; flow cytometry, compared with vehicle group and PD-1 antibody group",significantly induced an increase
same,TGI,H22-luc,83.4%
same,AUC0-t ratio (liver/plasma),[6],114
same,liver/plasma drug distribution ratio,[6],114 fold
same,Drug concentration ratio (liver/plasma),[6]; 0.25h,610
same,Mean drug concentration (liver),[6]; 0.25h,30980 ng/g
same,Mean drug concentration (plasma),[6]; 0.25h,50.8 ng/mL
same,Drug concentration ratio (liver/plasma),[6]; 1 h,134
same,Mean drug concentration (liver),[6]; 1 h,8780 ng/g
same,Mean drug concentration (plasma),[6]; 1 h,65.6 ng/mL
same,Drug concentration ratio (liver/plasma),[6]; 4h,71.3
same,Mean drug concentration (liver),[6]; 4h,1990 ng/g
same,Mean drug concentration (plasma),[6]; 4h,27.9 ng/mL
same,Drug concentration ratio (liver/plasma),[6]; 24h,79.4
same,Mean drug concentration (liver),[6]; 24h,327 ng/g
same,Mean drug concentration (plasma),[6]; 24h,4.12 ng/mL
same,AUC(0-t) at 24 h,[6]; AUC0-t (liver),58100 ng·h/mL
same,AUC(0-t) at 24 h,[6]; AUC0-t (plasma),510 ng·h/mL
same,IFN-α stimulating activity,[7],strong
same,"IFN-α, IFN-γ, and IL-1240 secretion","[7]; 4 concentrations, compared with GS-9688",significantly stronger activity and magnitude
